The source of these data is ChEMBL document CHEMBL6115028, “An Amazing 30-Year Journey around the DABO Family: A Medicinal Chemistry Lesson on a Versatile Class of Non-nucleoside HIV-1 Reverse Transcriptase Inhibitors” (J Med Chem, 2025).

Data set [1] relates to Human immunodeficiency virus 1. Kind of data set: Antiviral activity against HIV1 harboring K103N mutant infected in MT4 cells. The data set is classed as functional, organism-based. Conditions: Human immunodeficiency virus 1, MT4.
In data set [2] the test system is Human immunodeficiency virus 1. The data set can be described thus: Antiviral activity against HIV-1 harboring L100I mutant infected in human MT4 cells assessed as […]. The following applies: Human immunodeficiency virus 1, MT4. In kind it is functional, organism-based.
For data set [3], the system named is HOP-92. Kind of data set: Growth inhibition of human HOP-92 cells at 10 uM relative to control. The data set is classed as functional. Conditions: read-out: GI.
Data set [4] concerns Human immunodeficiency virus 1. The data set can be described thus: Antiviral activity against HIV-1 IIIB infected in […] cells assessed as reduction in viral replication measured for 72 hrs. In kind it is functional, organism-based. Conditions: Human immunodeficiency virus 1, IIIB.
In data set [5] the target is Human immunodeficiency virus type 1 reverse transcriptase (Human immunodeficiency virus 1, UniProt Q72547). Kind of data set: Inhibition of HIV-1 Reverse transcriptase.
A short description of data set [6]: Oral bioavailability in rat. The following applies: in vivo. The data set is classed as ADME, organism-based.
A short description of data set [7]: Solubility in water. In kind it is physicochemical.
The subject of data set [8] is Hepatitis B virus. Kind of data set: Antiviral activity against Hepatitis B virus infected in human HepG2.2.15 cells assessed as inhibition of HBV DNA production by qRT-PCR analysis. The data set is classed as functional, organism-based. On the technique in general: Quantitative PCR measures a nucleic acid by following its amplification.
Data set [9] relates to HepG2 2.2.15. Kind of data set: Cytotoxicity against human HepG2.2.15 cells assessed as reduction in cell growth by MTT assay. The data set is classed as functional. (In general: Formazan colour is commonly taken as a measure of viable cells.)
Data set [10] in a line: Cytotoxicity against African green monkey Vero cells assessed as reduction in cell growth measured after 96 hrs by MTT assay. The data set is classed as toxicity, cell-based. Conditions: chlorocebus sabaeus.
Data set [11] is described as follows: Inhibition of Hepatitis C virus NS5B RNA dependent RNA polymerase. Further details: species or system Hepacivirus hominis.
Data set [12] can be described thus: Cytotoxicity against African green monkey Vero cells assessed as reduction in cell viability measured after 96 hrs by MTT assay. The data set is classed as toxicity, cell-based. Conditions: chlorocebus sabaeus.
Data set [13] deals with Zika virus. The data set can be described thus: Antiviral activity against Zika virus infected in Vero cells assessed as reduction in viral DNA replication. In kind it is functional, organism-based.
The nature of data set [14]: Inhibition of Zika virus NS5 RNA-directed RNA polymerase NS5.
Data set [15] relates to A-375. The data set can be described thus: Inhibition of cell proliferation in human A-375 cells assessed as alive cells at 50 uM measured for 96 hrs relative to control. In kind it is functional.
Data set [16] relates to A-375. Kind of data set: Inhibition of cell proliferation in human A-375 cells assessed as alive cells at 100 uM measured for 96 hrs relative to control. In kind it is functional.
Data set [17] relates to Huh-7. Kind of data set: Cytotoxicity against human Huh-7 cells assessed as reduction in cell growth. The data set is classed as functional.
For data set [18], the system named is Hepatitis C virus. The data set can be described thus: Antiviral activity against Hepatitis C virus infected in human Huh7.5 cells assessed as reduction in viral replication. In kind it is functional, organism-based, Hepacivirus hominis.
The subject of data set [19] is MOLT-4. The data set can be described thus: Growth inhibition of human MOLT-4 cells at 10 uM relative to control. The following applies: read-out: GI. The data set is classed as functional.

In brackets after ≈: the same amount, converted by molar mass. Some results are limits rather than exact numbers.

In general, EC50 refers to the concentration needed to bring the measured effect to its halfway point. In the case of `O=c1cc(Cc2ccccc2)nc(NCCCCO)[nH]1`, the EC50 in data set [1] stood at 840 µM; in data set [2] it was 525 µM.
With `N#Cc1c(-c2c(Cl)cccc2Cl)nc(SCC(=O)c2ccc(Br)cc2)[nH]c1=O`, in [3], the inhibition of growth at 10 µM stood at 41%.
A word on the IC50: it is the concentration needed to halve the response being measured. Usually bioavailability stands for the share of a dose that reaches the circulation, judged against a reference dose that is usually intravenous. The solubility is the dissolved amount per volume that the medium holds. As for `CCc1c(CC2CCCCC2)nc(SCC(=O)c2ccc(OP(=O)(OC)OC)cc2)[nH]c1=O`, in [4], the EC50 turned out to be 0.01 µM. Further, the IC50 in [5] was 0.75 µM. Further, in data set [6], the bioavailability turned out to be 14.6%. Besides, the solubility in data set [7] turned out to be 6.4 µM (≈ 3.17 µg/mL).
A word on the CC50: it is the concentration that lowers cell viability or growth by half. In the case of `O=c1[nH]c(SC2OC[C@H](O)[C@@H](O)[C@@H]2O)nc(Cc2ccccc2)c1Cc1ccccc1` (stereo not given in full), in [8], the EC50 stood at 0.2 µM. The CC50 in data set [9] was above 100 µM.
Consider `CCc1c(C2CCCCC2)nc(SCC(=O)Nc2cc(F)cc(F)c2)[nH]c1=O`, for which the CC50 at 96 h in data set [10] is above 200 µM; in data set [12], above 10 µM. Further, the IC50 in data set [11] was 0.102 µM; in data set [14], 11.4 µM. For the same compound, in data set [13], the EC50 came out at 7.65 µM.
The inhibition is the percentage by which the read-out fell short of the control. For `CCC(C)Sc1nc(C(C)c2c(F)cccc2F)nc(=O)[nH]1` (stereo not given), the inhibition at 50 µM in data set [15] came to 62%. The inhibition at 100 µM in [16] was 14%.
Consider `CCc1c(-c2ccc(C(C)C)cc2)nc(Sc2ccccc2Br)[nH]c1=O`, for which, in data set [11], the midpoint of inhibition, the IC50, lay at 3.8 µM. For the same compound, in [17], the half-maximal cytotoxic concentration (CC50) was above 250 µM. The EC50 in data set [18] turned out to be 32 µM.
On to `CCc1ccc(-c2nc(SCC(=O)c3ccc(Br)cc3)[nH]c(=O)c2C#N)s1`, for which the inhibition of growth at 10 µM in data set [19] came to 42.4%.
